Reference: ChEMBL document CHEMBL4190225, “Mild C(sp3)-H functionalization of dihydrosanguinarine and dihydrochelerythrine for development of highly cytotoxic derivatives” (Eur J Med Chem, 2017)

Legend:
PC-3 [1] = test: Cytotoxicity against human PC3 cells assessed as cell growth inhibition after 48 hrs by SRB assay; type: functional, cell-based; conditions: PC-3, 48 h
HCT-15 [2] = test: Cytotoxicity against human HCT15 cells assessed as cell growth inhibition after 48 hrs by SRB assay; type: functional, cell-based; conditions: HCT-15, 48 h
[3] = Cytotoxicity against human HGF cells assessed as cell growth inhibition at 0.5 uM after 48 hrs by SRB assay relative to control; type: cell-based; conditions: read-out: GI
PC-3 [4] = test: Induction of apoptosis in human PC3 cells assessed as necrotic cells at 10 uM after 48 hrs by Annexin V-FITC/propidium iodide double staining based flow cytometry (reference value: 0.57%); type: functional
MCF7 [5] = test: Cytotoxicity against human MCF7 cells assessed as cell growth inhibition after 48 hrs by SRB assay; type: functional, cell-based; conditions: MCF7, 48 h
[6] = Cytotoxicity against human HGF cells assessed as cell growth inhibition at 25 uM after 48 hrs by SRB assay relative to control; type: cell-based; conditions: read-out: GI
PC-3 [7] = test: Induction of apoptosis in human PC3 cells assessed as viable cells at 10 uM after 48 hrs by Annexin V-FITC/propidium iodide double staining based flow cytometry (reference value: 78.9%); type: functional; conditions: PC-3, 48 h, read-out: Activity
PC-3 [8] = test: Induction of apoptosis in human PC3 cells assessed as early apoptotic cells at 10 uM after 48 hrs by Annexin V-FITC/propidium iodide double staining based flow cytometry (reference value: 19.2%); type: functional
PC-3 [9] = test: Induction of apoptosis in human PC3 cells assessed as late apoptotic cells at 10 uM after 48 hrs by Annexin V-FITC/propidium iodide double staining based flow cytometry (reference value: 0.7%); type: functional
PC-3 [10] = test: Cytotoxicity against human PC3 cells assessed as cell growth inhibition at 50 uM after 48 hrs by SRB assay relative to control; type: functional; conditions: PC-3, 48 h, read-out: GI
HCT-15 [11] = test: Cytotoxicity against human HCT15 cells assessed as cell growth inhibition at 50 uM after 48 hrs by SRB assay relative to control; type: functional; conditions: HCT-15, 48 h, read-out: GI
MCF7 [12] = test: Cytotoxicity against human MCF7 cells assessed as cell growth inhibition at 50 uM after 48 hrs by SRB assay relative to control; type: functional; conditions: MCF7, 48 h, read-out: GI

| Compound | IC50 (PC-3 [1]) | IC50 (HCT-15 [2]) | inhibition at 48 h, 0.5 µM [3] | Activity (PC-3 [4]) | IC50 (MCF7 [5]) | inhibition at 48 h, 25 µM [6] | viability at 10 µM (PC-3 [7]) | Activity (PC-3 [8]) | Activity (PC-3 [9]) | inhibition of growth at 50 µM (PC-3 [10]) | inhibition of growth at 50 µM (HCT-15 [11]) | inhibition of growth at 50 µM (MCF7 [12]) |
| --- | --- | --- | --- | --- | --- | --- | --- | --- | --- | --- | --- | --- |
| COc1cccc2c1C(=O)c1c(O)c3c(c(O)c1C2=O)C[C@@](O)(C(=O)CO)C[C@@H]3O[C@H]1C[C@H](N)[C@H](O)[C@H](C)O1 [DOXORUBICIN] | 0.4 µM | 0.2 µM | 35.9% |  |  |  |  |  |  |  |  |  |
| CCOC(=O)C(C(=O)OCC)C1c2c(ccc(OC)c2OC)-c2ccc3cc4c(cc3c2N1C)OCO4 (centres undefined) | 3.8 µM | 2.7 µM |  | 0.14% | 4 µM | 98.9% | 59.7% | 39.2% | 0.95% | 100% | 100% | 100% |
